In general, Ki refers to a measure of affinity in units of concentration, obtained from inhibition or displacement. What is called IC50 is the point on the concentration scale where inhibition reaches its midpoint.

Molecules are shown by their SMILES. Positions count from the first letter of the chain named.

We go through twelve compounds from article PMC11513924, “Addressing the Intracellular Vestibule of the Plasmodial Lactate Transporter PfFNT by p-Substituted Inhibitors Amplifies In Vitro Activity” (Journal of Medicinal Chemistry, 2024).

Experiment [1] addresses T1, PfFNT (Plasmodium falciparum, UniProt O77389).
T1 construct: expressed in transfected cells; membranes solubilized
T1 sequence (O77389 1-309): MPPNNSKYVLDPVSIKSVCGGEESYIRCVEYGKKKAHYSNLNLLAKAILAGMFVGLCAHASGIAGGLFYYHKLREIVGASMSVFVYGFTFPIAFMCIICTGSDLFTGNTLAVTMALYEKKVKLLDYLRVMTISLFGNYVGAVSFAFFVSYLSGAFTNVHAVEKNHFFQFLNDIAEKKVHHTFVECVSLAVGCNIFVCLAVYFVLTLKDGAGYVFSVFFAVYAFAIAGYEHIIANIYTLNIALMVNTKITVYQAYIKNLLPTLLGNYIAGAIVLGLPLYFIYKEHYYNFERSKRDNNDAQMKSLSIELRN
Kind of experiment: Fluorescence cross-correlation spectroscopy (FCCS) competition binding to solubilized PfFNT-GFP. The procedure:
FCCS measurements were conducted and analyzed as before.[20],[30] Briefly, membranes of stably transfected cells expressing PfFNT with a C-terminal GFP (green) were solubilized. BH267.meta 2 fused with DY647 (red) was used as a tracer to monitor the binding of compounds in a competition assay. Assays were done in […] glass bottom plates (cat. no. PS96B-G175, SWISSCI, Switzerland) using a plate reader (Insight, Evotec Technologies, Germany) fitted with a U-Apo300 40× water immersion lens, NA 1.15 (Olympus, Japan). Excitation was done with an argon-ion laser (488 nm) and a helium–neon laser (633 nm). Fluorescence fluctuations were recorded 10 times for 5 s per sample and fitted using FCS+ plus Analyze (PerkinElmer software). Initially, IC50 values were determined from the concentration of the dual labeled complex titrated against a competitor in a range of 100 pM to 100 μM (Figure S1). Then, Ki values were calculated using the Cheng Prusoff equation[31] based on the previously determined KD value for the BH267.meta-DY647 tracer.[20]

Experiment [2] addresses T1, PfFNT. Put plainly: Yeast-based PfFNT 14C-lactate transport assay. The experiment is classed as cell-based. The note with it: 14C-lactate transport, PfFNT wild type; read-out: IC50 (transport, yeast). As for the experimental part: (§1) Lactate transport functionality of PfFNT was assayed as described before.[4] Briefly, Saccharomyces cerevisiae W303-1A jen1Δady2Δcells[32] (MATa, can1-100, ade2-loc, his3-11-15, leu2-3,-112, trp1-1-1, ura3-1, jen1::kanMX4, ady2::hphMX4) kindly provided by M. Casal expressing PfFNT was grown at 29 °C to an OD600 of 1 (±0.1). Harvested cells were resuspended to an OD600 of 50 (±5) in 50 mM HEPES/Tris, pH 6.8 (±0.1). 10–15 min prior to the assay, 80 μL of yeast suspension were added to 1 μL of DMSO with or without inhibitor in a 1.5 mL reaction tube at 18 °C. Twenty μL of L-lactate solution spiked with [1-^14C]-L-lactate (Hartmann Analytic) was added yielding a 1 mM inward gradient with 0.04 μCi label. Transport was stopped after 30 s by abrupt dilution with 1 mL of ice-cold water, vacuum filtration via GF/C filter membranes (Whatman), and washing with 7 mL of ice-cold water. The radio label was analyzed by liquid scintillation counting in 3 mL of scintillation cocktail (Rotiszint eco plus, Carl Roth) using a Packard TriCarb 2900 TR (PerkinElmer Inc.).
(§2) Transport assays in yeast were done in triplicate biological replicates. At least nine technical replicates were measured around the IC50 value, concentrations with no or full inhibition were determined from at least three technical replicates. EC50-values were determined from 2 to 4 biological replicates. IC50 and EC50 curves were fitted by the Hill equation with variable slope (Graph Pad Prism 10). Error bars denote ± SEM (for n ≥ 3) or ± range (for n = 2). For the EC50-value of 7a the error of the fitting of the curve is given. Cytotoxicity was determined from biological triplicates; error is shown as SEM.

The subject of experiment [3] is Plasmodium falciparum 3D7 parasites. Put plainly: P. falciparum 3D7 culture growth assay in erythrocytes (in vitro activity). The experiment is classed as cell-based. Particulars: Plasmodium falciparum, 3D7, Erythrocyte; for activity at 0.05 µM / activity at 0.1 µM / activity at 0.2 µM: 48 h, % of untreated control; for activity at 0.05 µM: read-out: % Growth at 50 nM (in vitro, 3D7); for activity at 0.1 µM: 100 nM compound, read-out: % Growth at 100 nM (in vitro, 3D7); for activity at 0.2 µM: 200 nM compound, read-out: % Growth at 200 nM (in vitro, 3D7). The procedure: The parasitemia was measured using an LSR II FACS (BD Biosciences) as described.[34],[35] Growth was assessed as % of untreated control. EC50 curves were plotted using Graph Pad Prism.
Transport assays in yeast were done in triplicate biological replicates. At least nine technical replicates were measured around the IC50 value, concentrations with no or full inhibition were determined from at least three technical replicates. […] IC50 and EC50 curves were fitted by the Hill equation with variable slope (Graph Pad Prism 10). Error bars denote ± SEM (for n ≥ 3) or ± range (for n = 2). […] Cytotoxicity was determined from biological triplicates; error is shown as SEM.

Another experiment concerns the target T2, PfFNT G107S (Plasmodium falciparum, UniProt O77389, G107S).
T2 construct: expressed in transfected cells; host or cells: Saccharomyces cerevisiae (yeast transport assay; strain as for wild type, inferred from the shared method)
T2 sequence (O77389 1-309 G107S): T1 sequence (O77389 1-309) with G107S
Kind of experiment: Yeast-based 14C-lactate transport assay, PfFNT G107S resistance mutant. The format is cell-based. The procedure:
as §1, §2

Regarding `O=C(/C=C(\O)C(F)(F)C(F)(F)F)c1ccc(NC2CC2)nc1` [7k, 1-(6-(Cyclopropylamino)pyridin-3-yl)-4,4,5,5,5-pentafluoro-3-hydroxypent-2-en-1-one], the affinity at PfFNT [1], expressed as Ki, was 10 ± 2 nM. The half-maximal inhibitory concentration (IC50) on PfFNT [2] was 190 ± 20 nM. For the same compound, the activity at 0.05 µM in experiment [3] (50 nM compound) is 44%. Besides, in experiment [3], the activity at 0.1 µM is 11% and the activity at 0.2 µM is 5%.
In the same order, the values of `O=C(/C=C(\O)C(F)(F)C(F)(F)F)c1ccc(NC2CCC2)nc1` [7l, 1-(6-(Cyclobutylamino)pyridin-3-yl)-4,4,5,5,5-pentafluoro-3-hydroxypent-2-en-1-one] are 23 ± 7 nM, 260 ± 30 nM, 59%, 16% and 7%.
As for `O=C(/C=C(\O)C(F)(F)C(F)(F)F)c1ccc(NCC2CC2)nc1` [7m, 1-(6-((Cyclopropylmethyl)amino)pyridin-3-yl)-4,4,5,5,5-pentafluoro-3-hydroxypent-2-en-1-one], affinity on PfFNT [1] was put at a Ki of 18 ± 3 nM. Besides, the IC50 at PfFNT [2] is 170 ± 10 nM. Also, the activity at 0.05 µM in experiment [3] (50 nM compound) was 6%. Besides, in experiment [3], the activity at 0.1 µM came to 3% and the activity at 0.2 µM amounted to 2%. For the same compound, in experiment [3] (50 nM compound, 100 minus % growth, read-out: inhibitory activity at 50 nM (in vitro, 3D7)), the inhibition at 0.05 µM is 94%.
As for `CC(C)Nc1ccc(C(=O)/C=C(\O)C(F)(F)C(F)(F)F)cn1` [7n, 4,4,5,5,5-Pentafluoro-3-hydroxy-1-(6-(isopropylamino)pyridin-3-yl)pent-2-en-1-one], the Ki at PfFNT [1] was 67 ± 11 nM. The IC50 on PfFNT [2] is 150 ± 10 nM. Also, the activity at 0.05 µM in experiment [3] (50 nM compound) was 53%. In experiment [3], the activity at 0.1 µM was 31% and the activity at 0.2 µM was 15%.
The corresponding values for `CC(C)(C)Nc1ccc(C(=O)/C=C(\O)C(F)(F)C(F)(F)F)cn1` [7o, 1-(6-(tert-Butylamino)pyridin-3-yl)-4,4,5,5,5-pentafluoro-3-hydroxypent-2-en-1-one] are 239 ± 101 nM, 370 ± 40 nM, 97%, 97% and 93%.
The corresponding values for `O=C(/C=C(\O)C(F)(F)C(F)(F)F)c1ccc(NCc2ccc(F)cc2)nc1` [7p, 4,4,5,5,5-Pentafluoro-1-(6-((4-fluorobenzyl)amino)pyridin-3-yl)-3-hydroxypent-2-en-1-one] are 16 ± 3 nM, 390 ± 30 nM, 37%, 7% and 0%.
The corresponding values for `COc1cc(CNc2ccc(C(=O)/C=C(\O)C(F)(F)C(F)(F)F)cn2)cc(OC)c1OC` [7q, 4,4,5,5,5-Pentafluoro-3-hydroxy-1-(6-((3,4,5-trimethoxybenzyl)amino)pyridin-3-yl)pent-2-en-1-one] are 49 ± 12 nM, 2110 ± 320 nM, 107%, 105% and 117%.
As to `CCCN(C)c1ccc(C(=O)/C=C(\O)C(F)(F)C(F)(F)F)cn1` [7r, 4,4,5,5,5-Pentafluoro-3-hydroxy-1-(6-(methyl(propyl)amino)pyridin-3-yl)pent-2-en-1-one], the affinity on PfFNT [1] corresponds to a Ki of 98 ± 11 nM. Moreover, the IC50 at PfFNT [2] was 350 ± 80 nM. For the same compound, in experiment [3] (50 nM compound), the activity at 0.05 µM was 114%. In addition, the activity at 0.2 µM in experiment [3] turned out to be 96%.
Regarding `CCN(CC)c1ccc(C(=O)/C=C(\O)C(F)(F)C(F)(F)F)cn1` [7s, 1-(6-(Diethylamino)pyridin-3-yl)-4,4,5,5,5-pentafluoro-3-hydroxypent-2-en-1-one], the Ki at PfFNT [1] was determined as 142 ± 24 nM. Besides, the IC50 on PfFNT [2] was determined as 380 ± 20 nM. For the same compound, the activity at 0.05 µM in experiment [3] (50 nM compound) was 71%. Further, in experiment [3], the activity at 0.1 µM turned out to be 76% and the activity at 0.2 µM turned out to be 80%.
In the same order, the values of `CCC(=O)Nc1ccc(C(=O)/C=C(\O)C(F)(F)C(F)(F)F)cn1` [8b, N-(5-(4,4,5,5,5-Pentafluoro-3-hydroxypent-2-enoyl)pyridin-2-yl)propionamide] are 27 ± 4 nM, 250 ± 20 nM, 17%, 10% and 4%.
In the same order, the values of `O=C(/C=C(\O)C(F)(F)C(F)(F)F)c1ccc(NC(=O)c2ccccc2)nc1` [8c, N-(5-(4,4,5,5,5-Pentafluoro-3-hydroxypent-2-enoyl)pyridin-2-yl)benzamide] are 16 ± 2 nM, 370 ± 20 nM, 78%, 51% and 13%.
With `O=C(/C=C(\O)C(F)(F)C(F)(F)F)c1cccc(O)c1` [compound 6, 4,4,5,5,5-Pentafluoro-3-hydroxy-1-(3-hydroxyphenyl)pent-2-en-1-one], the Ki at PfFNT [1] is 26 ± 3 nM. Also, the IC50 is 160 ± 10 nM on PfFNT [2] and 6710 nM against PfFNT G107S.
